Test results from US20210379077A1, “TOPOISOMERASE II CATALYTIC INHIBITOR COMPOUND THERAPEUTICS FOR CANCER TREATMENT, METHODS AND USES” (The University of British Columbia, priority 2018, published 2021).
“Also recorded” adds a separate entry of the source.

Experiments:
Topoisomerase II = molecular target: T1, Topoisomerase II (Homo sapiens, UniProt P11388); assay: Topoisomerase II inhibition screening (supercoiled plasmid relaxation, then kDNA decatenation); type: biochemical; design: key to TOP2 Inhib.: Y is an indication that activity was found
T1 construct: purchased TopoGENE (TopoGEN) TG2000H / kit TG1001
Description: In vitro Topo II activity assays—K-DNA decatenation assays were performed using the human Topo II assay kit (TG1001, TopoGENE™) with Etoposide and ICRF193 as poison and catalytic inhibitors respectively. DNA relaxation assays were performed by incubating the supercoiled pHOT™ plasmid with human Topo IIα (TG2000H™, TopoGENE™) at 37 degrees for one hour. Reactions were stopped by adding 10% SDS, EDTA and proteinase K. Plasmid DNAs were separated on DNA agarose gel and stained with ethidium bromide for visualization.
Medium Throughput Screening Assays A supercoiled plasmid relaxation assay was used as a first, course filter to determine candidate small molecules. Small molecule candidates that were sufficiently active in the first round screening were then subject to the kDNA decatenation assay.
Second Round Screening With the discovered active compounds 19 and 23, a new screen was initiated to look for similar molecules. For this, the shape similarity screening program ROCS™^10 was used The compounds chosen for the ROCS™ search was based on the docking conformation of Compound 23. The ZINC-15 library filtered down to 6 million molecules described previously was used for this screening. The top 62 molecules were hand-picked based on their ROCS™ similarity as well as their docking scores. These molecules were ordered and tested with the same medium throughput assays previously described. A large enrichment in the proportion of active molecules was observed, of close to 10-fold relative to the first round, validating the virtual screening pipeline.

human TOP2a = molecular target: T2, human TOP2a (Homo sapiens, UniProt P11388); assay: K-DNA decatenation assay; type: biochemical; settings: 0-50 μM, 37° C., 1 hour
T2 construct: purchased TopoGENE (TopoGEN) TG1001 (assay kit)
Description: DNA samples were separated by electrophoresis on 0.8% agarose gels and visualized by ethium bromide staining. The positions of K-DNA and decatenated (D) DNA products are marked by arrows. Experiments were repeated five times and the densitometry of the D bands were used to establish an inhibition curve to calculate IC50. (b) Supercoiled pHOT™ plasmid was incubated with human TOP2a in the presence of 50 μM Etopside, 50 uM ICRF193 or 0-50 μM of compound #60 (Top60) compound at 37° C. for 1 hour. DNA products were separated by electrophoresis on 1% agarose gels and visualized by ethium bromide staining. The positions of supercoiled (SC), nicked (N), and relaxed (R) DNA bands are marked by arrows. Experiments were repeated five times and the densitometiy of the SC bands were used to establish an inhibition curve to calculate IC50. (c) Supercoiled pHOT™ plasmid was incubated with Topoisomerase I prior to addition of either mAMSA or compound #60 (Top60) at concentrations of 0, 5, 10, 25 and 50 μM at 37° C. for 30 minutes. Reactions were stopped by 1% SDS at 37° C. for 15 minutes. DNA products were separated by electrophoresis on a 1% agarose gels and visualized by ethium bromide staining. […]

K562 cells = assay: γH2AX Western blot (DNA damage in cells); type: cell-based; settings: 10-20 μM, 4 hours, listed as Top60
Description: Cytotoxicity was evaluated by measuring LDH levels from cell culture media; (b) K562 cells were treated with either vehicle or 10-20 μM of Top60, Etoposide and ICRF187 for 4 hours. Whole cell lyses were collected to measure γH2AX levels with vinculin as the loading control; (c) K562 cells were treated with 0, 1, 5, 10, 15 and 20 μM of Top60, 20 μM Etoposide or 20 uM ICRF187 for 48 hours. Cell proliferation rates were determined by MTS assays; and (d) K562 cells were treated with 20 μM of Top60, Etoposide or ICRF187 for 0, 24, 48 and 72 hours. Cell proliferation rates were measured by MTS assays. All results were collected from three independent experiments.
Top60 is a catalytic inhibitor of Topo II To verify that our lead Compound 60(Top60), the formation of ds DNA breaks was assayed both in and outside of cells. To assess whether Top60 causes double stranded DNA breaks outside cells, supercoiled plasmid was incubated with and without Top60 in the presence of Topo II (FIG. 1d). […] Furthermore, H2AXγ protein expression was assessed by Western blot to determine if the lead compound could cause DNA damage in cells, and compared to Etoposide as a control (FIG. 3b). […] To determine if Top60 was capable of intercalating DNA, it was incubated with relaxed plasmid at increasing concentrations and compared with m-AMSA, a known intercalator. […]

Hela cells [1] = assay: BrdU incorporation assay; type: cell-based; settings: 20 μM, 48 hours, listed as Top60
Description: (§1) BrdU incorporation rates were determined by Millipore™ BrdU incorporation kit (CAT #2750). (b-c) Hela cells were treated with vehicle or 20 μM of Top60 for 48 hours. Cells were then stained with APC-BrdU and 7-AAD for 4 hours, and subjected to FACS assays to determine cell populations at Sub G0/G1, G0/G1, S, and G2/M phases. Results were collected from three independent experiments, (d-e) Hela cells were treated with either vehicle or 20 μM T60 for 48 hours. Cells were fixed and co-stained with DAPI and phalloidin, and examined by confocal microscopy. Fifty cells were chosen from five high power fields to analyze nuclei sizes by the Image J software. Representative bright field microscopic images were also shown. Scale bar=50 μm.
BrDU incorporation and cell proliferation assays—Cell proliferation rates were measured by using the CellTitre™ 96 AqueousOne™ kit (Promega™) and bromodeoxyuridine (BrdU) assay kit (Millipore™) according to the manufacturer's protocol, with minor modifications as we have previously described by Li H. et al.^19

Hela cells [2] = assay: Confocal microscopy of nuclei size; type: cell-based; settings: 20 μM, 48 hours, DAPI staining
Description: as §1
Confocal microscopy—Cells were fixed with 4% paraformaldehyde, treated in 0.25% Triton X-100 for 15 mins, incubated with F-actin conjugated to Phalloidin-iFluor 488™ (Abeam™; Cambridge, UK), and mounted with DAPI staining mount (Vector Labs™; Burlingame, Calif., USA). Cells were then imaged by confocal microscopy at 63× magnification (Zeiss LSM 780™; Carl Zeiss AG™; Oberkochen, Germany).

T1 sequence (P11388 whole entry): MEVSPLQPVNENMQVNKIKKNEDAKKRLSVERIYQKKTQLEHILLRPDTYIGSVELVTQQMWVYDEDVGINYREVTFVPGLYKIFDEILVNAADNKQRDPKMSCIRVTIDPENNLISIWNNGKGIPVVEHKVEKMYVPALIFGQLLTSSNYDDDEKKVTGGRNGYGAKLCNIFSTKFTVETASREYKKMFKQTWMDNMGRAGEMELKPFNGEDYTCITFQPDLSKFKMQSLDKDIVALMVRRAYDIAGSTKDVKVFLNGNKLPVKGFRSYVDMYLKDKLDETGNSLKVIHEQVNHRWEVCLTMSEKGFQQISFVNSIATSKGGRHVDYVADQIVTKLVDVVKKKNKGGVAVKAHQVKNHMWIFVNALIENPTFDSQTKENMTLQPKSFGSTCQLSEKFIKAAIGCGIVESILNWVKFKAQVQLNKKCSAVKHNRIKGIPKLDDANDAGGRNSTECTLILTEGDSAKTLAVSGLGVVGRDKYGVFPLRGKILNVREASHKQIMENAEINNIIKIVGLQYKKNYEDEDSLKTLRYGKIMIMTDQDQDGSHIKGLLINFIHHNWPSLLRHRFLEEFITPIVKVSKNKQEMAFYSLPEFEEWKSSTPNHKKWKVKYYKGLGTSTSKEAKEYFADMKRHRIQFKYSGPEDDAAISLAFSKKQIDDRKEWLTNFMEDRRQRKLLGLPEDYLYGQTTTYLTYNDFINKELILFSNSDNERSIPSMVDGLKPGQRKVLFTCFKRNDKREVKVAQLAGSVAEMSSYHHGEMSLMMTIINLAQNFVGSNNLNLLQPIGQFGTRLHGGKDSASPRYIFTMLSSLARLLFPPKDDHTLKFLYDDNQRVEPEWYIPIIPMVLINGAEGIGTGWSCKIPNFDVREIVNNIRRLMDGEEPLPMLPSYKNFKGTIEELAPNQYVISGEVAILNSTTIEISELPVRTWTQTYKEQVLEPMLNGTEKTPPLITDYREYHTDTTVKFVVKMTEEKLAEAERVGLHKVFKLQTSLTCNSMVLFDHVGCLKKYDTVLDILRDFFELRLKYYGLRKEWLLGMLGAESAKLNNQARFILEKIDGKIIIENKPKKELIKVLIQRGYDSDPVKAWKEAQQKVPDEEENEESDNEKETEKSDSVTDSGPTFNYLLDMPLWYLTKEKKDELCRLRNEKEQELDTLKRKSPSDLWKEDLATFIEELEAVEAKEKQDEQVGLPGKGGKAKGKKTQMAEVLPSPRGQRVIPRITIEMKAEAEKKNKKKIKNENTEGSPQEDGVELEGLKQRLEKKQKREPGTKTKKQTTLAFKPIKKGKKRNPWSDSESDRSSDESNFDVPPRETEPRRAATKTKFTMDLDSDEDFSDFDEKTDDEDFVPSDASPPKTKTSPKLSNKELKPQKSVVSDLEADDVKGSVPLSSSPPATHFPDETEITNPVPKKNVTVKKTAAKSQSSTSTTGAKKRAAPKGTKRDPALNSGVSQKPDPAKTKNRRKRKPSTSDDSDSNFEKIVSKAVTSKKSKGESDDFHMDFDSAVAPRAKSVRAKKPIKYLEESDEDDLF
T2 sequence (P11388 whole entry): as above

SMILES: O=C(Nc1ccc(Nc2ccccc2)cc1)c1ccc[nH]c1=S [Compound 60]
- TOP2 Inhib. (Topoisomerase II): Y
- inhibitory activity against Topo II compared with ICRF-193 (Topoisomerase II): more potent inhibitory activity against Topo II than ICRF-193
- IC50 of Topo II inhibition (Topoisomerase II; assay not specified): nanomolar
- relative activity among compounds tested in the screening round (Topoisomerase II; medium throughput relaxation and kDNA decatenation assays): most active of the group
- Topoisomerase II inhibitory activity (Topoisomerase II; result in words): inhibits TOP2 activity
- IC50 in the decatenation assay (human TOP2a): nanomolar
- DNA damage in cells by H2AXγ protein level (K562 cells): do not cause DNA damage
- cellular replication (BrdU incorporation) (Hela cells [1]): Decreased cellular replication; also recorded: inhibits DNA synthesis at S phase
- nuclei size (Hela cells [2]): enlarged nuclei
